The values that follow come from ChEMBL document CHEMBL3351403, “Lead identification of benzimidazolone and azabenzimidazolone arylsulfonamides as CC-chemokine receptor 4 (CCR4) antagonists” (Bioorg Med Chem, 2014).

This data set can be described thus: Lipophilicity, log D of the compound at pH 7.4 by chromatography. As to conditions: buffer. In kind it is physicochemical.

By chromatographic logD is commonly meant lipophilicity estimated from chromatographic retention. High values mean higher lipophilicity, low ones lower lipophilicity. For `COc1cc2[nH]c(=O)n(CC(N)=O)c2cc1NS(=O)(=O)c1cccc(Cl)c1Cl`, the chromatographic logD stood at 2.4.

`COc1cc2c(cc1NS(=O)(=O)c1cccc(Cl)c1Cl)[nH]c(=O)n2CCN(C)C`: the chromatographic logD was determined as 2.6.

The compound `COc1nc2[nH]c(=O)[nH]c2cc1NS(=O)(=O)c1cccc(Cl)c1Cl` displayed a chromatographic logD of 3.2.

Compound `COc1cc2[nH]c(=O)n(C)c2cc1NS(=O)(=O)c1cccc(Cl)c1Cl` displayed a chromatographic logD of 3.7.

`COc1cccc2c1c(NS(=O)(=O)c1cccc(Cl)c1Cl)nn2C` returned a chromatographic logD of 5.3.

With `COc1cc2c(cc1NS(=O)(=O)c1cccc(Cl)c1Cl)[nH]c(=O)n2C(CO)CO`, the chromatographic logD amounted to 2.1.

As for `COc1cc2c(cc1NS(=O)(=O)c1cccc(Cl)c1Cl)n(C)c(=O)n2C`, the chromatographic logD is 4.4.

`COc1cc2[nH]c(=O)[nH]c2cc1NS(=O)(=O)c1cccc(Cl)c1Cl` returned a chromatographic logD of 3.2.

For `COc1cc2c(cc1NS(=O)(=O)c1cccc(Cl)c1Cl)[nH]c(=O)n2C`, the chromatographic logD stood at 3.8.

`COc1cc2c(cc1NS(=O)(=O)c1cccc(Cl)c1Cl)[nH]c(=O)n2C1CN(C(C)=O)C1` gave a chromatographic logD of 3.7.

Consider `COc1cc2c(cc1NS(=O)(=O)c1cccc(Cl)c1Cl)[nH]c(=O)n2C1CNC1`, for which the chromatographic logD turned out to be 3.

For `CCCn1c(=O)[nH]c2cc(NS(=O)(=O)c3cccc(Cl)c3Cl)c(OC)cc21`, the chromatographic logD is 3.2.

`COc1cc2c(cc1NS(=O)(=O)c1cccc(Cl)c1Cl)[nH]c(=O)n2C(C)C` came in with a chromatographic logD of 4.7.

In the case of `COc1cc2c(cc1NS(=O)(=O)c1cccc(Cl)c1Cl)[nH]c(=O)n2CC(N)=O`, the chromatographic logD stood at 2.5.

As to `COc1cc2c(cc1NS(=O)(=O)c1cccc(Cl)c1Cl)[nH]c(=O)n2C1COC1`, the chromatographic logD is 4.6.

For the compound `COc1cc2[nH]c(=O)[nH]c2nc1NS(=O)(=O)c1cccc(Cl)c1Cl`, the chromatographic logD was found to be 2.4.
